Reference: US9828357B2, “Cyclic compounds” (Takeda Pharmaceutical Company Limited, priority 2015, dated 2017)

What was measured:
TLR4 = target: T1, TLR4 (Mus musculus, UniProt Q9QUK6); experiment: Inhibitory effect with respect to NO production (LPS/interferon γ-stimulated RAW264.7); type: cell-based, murine; details: RAW264.7 cells, LPS 1.25 ng/mL and mouse interferon γ 0.2 ng/mL, nitrite ion in culture supernatant
T1 construct: endogenous in cells; host or cells: RAW264.7 (murine macrophage cell line)
T1 sequence (Q9QUK6 26-835): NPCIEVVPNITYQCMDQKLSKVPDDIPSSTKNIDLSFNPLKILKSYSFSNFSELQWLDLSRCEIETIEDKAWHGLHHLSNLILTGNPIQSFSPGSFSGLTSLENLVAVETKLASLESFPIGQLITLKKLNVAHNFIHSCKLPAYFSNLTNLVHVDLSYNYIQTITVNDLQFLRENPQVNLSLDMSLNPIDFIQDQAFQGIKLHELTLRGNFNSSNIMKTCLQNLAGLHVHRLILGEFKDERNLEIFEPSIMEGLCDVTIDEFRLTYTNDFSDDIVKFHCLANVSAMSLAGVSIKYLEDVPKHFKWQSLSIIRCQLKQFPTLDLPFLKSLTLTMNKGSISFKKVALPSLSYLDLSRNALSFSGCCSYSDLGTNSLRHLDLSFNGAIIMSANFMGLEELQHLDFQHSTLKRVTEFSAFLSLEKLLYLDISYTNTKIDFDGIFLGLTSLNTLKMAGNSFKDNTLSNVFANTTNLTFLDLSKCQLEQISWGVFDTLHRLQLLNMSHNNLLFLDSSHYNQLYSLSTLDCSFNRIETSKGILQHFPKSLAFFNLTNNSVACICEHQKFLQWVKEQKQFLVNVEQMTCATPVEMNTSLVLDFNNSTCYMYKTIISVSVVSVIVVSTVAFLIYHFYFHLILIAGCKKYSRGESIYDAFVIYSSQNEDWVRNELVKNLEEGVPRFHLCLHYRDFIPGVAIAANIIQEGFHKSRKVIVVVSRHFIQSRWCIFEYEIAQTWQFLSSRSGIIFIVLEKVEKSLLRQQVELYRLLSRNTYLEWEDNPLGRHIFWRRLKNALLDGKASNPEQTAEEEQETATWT
T1 sequence (Q9JHF9 19-160 partner): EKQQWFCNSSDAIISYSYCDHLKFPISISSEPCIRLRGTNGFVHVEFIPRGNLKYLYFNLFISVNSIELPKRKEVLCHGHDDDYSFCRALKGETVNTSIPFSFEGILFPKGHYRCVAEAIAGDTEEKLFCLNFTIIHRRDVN
Experimental: The inhibitory effect on TLR4 was determined using the inhibition rate due to the test compound with respect to NO production as a result of addition of lipopolysaccharide (LPS) using murine macrophage cell line RAW264.7. The cells were adjusted to 2×10^6 cells/mL using RPM1-1640 culture medium (phenol red free) supplemented with 10% inactivated bovine fetal serum, and were plated on 384 well plate so as to contain 6×10^4 cells/30 μL per well. Thereafter the cells were cultured at 37° C. overnight under 5% CO2/95% air. The test compound dissolved in DMSO was diluted 200 times using RPM1-1640 culture medium and adjusted so as to form a compound concentration of 500 nM. The prepared test compound 10 μL (final concentration 100 nM) was added to the cells, and LPS (Sigma) and mouse interferon γ (Wako Pure Chemicals) were added in amounts of 10 μL so as to form final concentrations of 1.25 ng/mL and 0.2 ng/mL respectively. The cells were further cultured overnight, and then the nitrite ion (stable NO metabolite) concentration in the culture supernatant was measured as an index of NO production. The nitrite ion concentration was assayed by adding 10 μL of 20 μg/mL 2,3-diamino naphthalene (DAN) dissolved in 0.2N HCl to 20 μL culture supernatant, incubating at room temperature for ten minutes, and then adding 10 μL of 0.5N NaOH, and measuring the fluorescent value at 460 nm (excitation wavelength 355 nm) using an EnVision plate reader (Perkin Elmer). The NO production inhibition rate (%) was calculated using the value without the addition of stimulating agent as control of 100% inhibition, and the value without the addition of the compound as control of 0% inhibition.

[1] = test system: liver injury by Galactosamine/LPS stimulation; experiment: Action on liver injury by Galactosamine/LPS stimulation (blood plasma ALT); type: in vivo; details: BALB/c mice; for ALT amount in the blood plasma: 8 hr, mean ± standard error
Experimental: The action on liver injury by Galactosamine/LPS stimulation was evaluated by elevation of blood alanine transaminase (ALT) amount as an index. Galactosamine (700 mg/kg) and LPS (5 μg/kg) were administered intraperitoneally to BALB/c mice (female, 7 weeks old, Japan Charles River). After 8 hr, the blood was collected in the presence of heparin. The obtained blood was centrifuged (4° C., 10000×rpm, 10 min), and the blood plasma was collected, and the ALT amount in the blood plasma was measured by 7180 type Hitachi automated analytical apparatus (Hitachi High-Technologies Corporation). Compound 6 was dissolved in 10% captisol solution (0.3, 1, 3 mg/kg), and the solution was administered intravenously to the mice in the tail vein 1 hr before Galactosamine/LPS administration.

[2] = test system: oxaliplatin induced-neuropathic pain model mouse; experiment: Analgesic action on oxaliplatin induced-neuropathic pain model mouse; type: in vivo; details: C57BL/6N mice, 1 week after oxaliplatin 0.3 mg/kg i.p., mean ± standard error
Experimental: Oxaliplatin was diluted with saline by the predetermined concentration, and administered intraperitoneally to mice (C57BL/6N, male, 8 weeks old) at 0.3 mg/kg. The test compound was dissolved in 10% captisol or 10% captisol containing 0.1% N-methyl-2-pyrrolidone. The compound was administered intravenously (0.1-10 mg/kg body weight) to the mice immediately before intraperitoneal administration of various anticancer drugs. The pain threshold was measured 1 week after oxaliplatin administration. The pain threshold was evaluated as a weighted value (gram) showing pseudo-escape reaction, when the footpad of the right hind limb was pressed using balance type pressurizing device (Ugo Basile). The values in the table show the mean±standard errors of the weighted values.

CCOC(=O)C1=CC2(CC[C@H]1S(=O)(=O)[C@H]1CCc3cccc(Cl)c31)O[C@H](CO)[C@@H](CO)O2 [Compound 6, Ethyl (2R,3R,8R)-8-(((1S)-7-chloro-2,3-dihydro-1H-inden-1-yl)sulfonyl)-2,3-bis(hydroxymethyl)-1,4-dioxaspiro[4.5]dec-6-ene-7-carboxylate]
NO production inhibitory effect at 100 nM (% inhibition) (TLR4): 103 % inhibition | ALT amount in the blood plasma ([1]; 0.3 mg/kg i.v. 1 hr before Galactosamine/LPS): 570 ± 94 IU/L | ALT amount in the blood plasma ([1]; 1 mg/kg i.v. 1 hr before Galactosamine/LPS): 361 ± 60 IU/L | ALT amount in the blood plasma ([1]; 3 mg/kg i.v. 1 hr before Galactosamine/LPS): 104 ± 10 IU/L | Effect on the increase in the ALT amount in the blood plasma due to Galactosamine/LPS stimulation (in words) ([1]; 0.3, 1, 3 mg/kg i.v.): dose-dependently and significantly inhibited the increase in the ALT amount | Pain threshold (weighted value showing pseudo-escape reaction) ([2]; 1 mg/kg i.v.): 190.0 ± 46.1 gram | Pain threshold (weighted value showing pseudo-escape reaction) ([2]; 3 mg/kg i.v.): 153.3 ± 46.1 gram | Pain threshold (weighted value showing pseudo-escape reaction) ([2]; 10 mg/kg i.v.): 310.0 ± 45.6 gram
